From patent US10301280B2 (Plexxikon Inc., priority 2012, dated 2019)

molecular target: c-kit kinase (Homo sapiens (Human), UniProt P10721); test: c-Kit biochemical assay (AlphaScreen); conditions: c-kit biochemical inhibitory activity
Method: Assays for biochemical cell-based activity of c-kit kinase are known in the art, for example, as described in U.S. Pat. Nos. 7,498,342 and 7,846,941, the disclosures of which are hereby incorporated by reference as it relates to such assays. The c-kit (or kinase domain thereof) is an active kinase in AlphaScreen. IC50 values are determined with respect to inhibition of c-Kit kinase activity, where inhibition of phosphorylation of a peptide substrate is measured as a function of compound concentration. Compounds to be tested were dissolved in DMSO to a concentration of 20 mM. These were diluted 30 μl into 120 μl of DMSO (4 mM) and 1 μl was added to an assay plate. These were then serially diluted 1:3 (50 μl to 100 μl DMSO) for a total of 8 points. Plates were prepared such that each kinase reaction is 20 μl in 1× kinase buffer (50 mM HEPES, pH 7.2, 5 mM MgCl2, 5 mM MnCl2, 0.01% NP-40, 0.2% BSA), 5% DMSO and 10 µM ATP. Substrate was 100 nM biotin-(E4Y)3 (Open Source Biotech, Inc.). C-kit kinase was at 0.1 ng per sample. After incubation of the kinase reaction for 1 hour at room temperature, 5 μl of donor beads (Streptavidin coated beads (Perkin Elmer Life Science) final concentration 1 μg/ml) in stop buffer (50 mM EDTA in 1× kinase buffer) was added, the sample was mixed and incubated for 20 minutes at room temperature before adding 5 μl of acceptor beads (PY20 coated beads (Perkin Elmer Life Science) final concentration 1 μg/ml) in stop buffer. The samples were incubated for 60 minutes at room temperature and the signal per well was read on AlphaQuest reader. Phosphorylated substrate results in binding of the PY20 antibody and association of the donor and acceptor beads such that signal correlates with kinase activity. The signal vs. compound concentration was used to determine the IC50.
Compounds were also tested using a similar assay with a 10-fold higher ATP concentration. For these samples, compounds to be tested were dissolved in DMSO to a concentration of 20 mM. These were diluted 30 μl into 120 μl of DMSO (4 mM) and 1 μl was added to an assay plate. These were then serially diluted 1:3 (50 μl to 100 μl DMSO) for a total of 8 points. Plates were prepared such that each kinase reaction is 20 μl in 1× kinase buffer (25 mM HEPES, pH 7.5, 2 mM MgCl2, 2 mM MnCl2, 0.01% Tween-20, 1 mM DTT, and 0.001% BSA), 5% DMSO and 100 µM ATP. Substrate was 30 nM biotin-(E4Y)10 (Upstate Biotech, Cat#12-440). C-kit kinase was at 1 ng per sample. After incubation of the kinase reaction for 1 hour at room temperature, 5 μl of donor beads (Streptavidin coated beads (Perkin Elmer Life Science) final concentration 10 μg/ml) in stop buffer (25 mM HEPES pH 7.5, 100 mM EDTA, 0.3% BSA) was added, the sample was mixed and incubated for 20 minutes at room temperature before adding 5 μl of acceptor beads (PY20 coated beads (Perkin Elmer Life Science) final concentration 10 μg/ml) in stop buffer. The samples were incubated for 60 minutes at room temperature and the signal per well was read on AlphaQuest or Envision reader (Perkin Elmer Life Science). Phosphorylated substrate results in binding of the PY20 antibody and association of the donor and acceptor beads such that signal correlates with kinase activity. The signal vs. compound concentration was used to determine the IC50.
The c-kit enzyme used in the above assay was either obtained from Cell Signaling Technology (Cat. #7754) or was prepared as follows: A plasmid encoding kit (DNA and encoded protein sequences shown below) was engineered using common polymerase chain reaction (PCR) methods. Complementary DNA cloned from various human tissues were purchased from Invitrogen, and these were used as substrates in the PCR reactions. Specific custom synthetic oligonucleotide primers were designed to initiate the PCR product, and also to provide the appropriate restriction enzyme cleavage sites for ligation with the plasmids. […]

Chain of c-kit kinase (P10721 26-976): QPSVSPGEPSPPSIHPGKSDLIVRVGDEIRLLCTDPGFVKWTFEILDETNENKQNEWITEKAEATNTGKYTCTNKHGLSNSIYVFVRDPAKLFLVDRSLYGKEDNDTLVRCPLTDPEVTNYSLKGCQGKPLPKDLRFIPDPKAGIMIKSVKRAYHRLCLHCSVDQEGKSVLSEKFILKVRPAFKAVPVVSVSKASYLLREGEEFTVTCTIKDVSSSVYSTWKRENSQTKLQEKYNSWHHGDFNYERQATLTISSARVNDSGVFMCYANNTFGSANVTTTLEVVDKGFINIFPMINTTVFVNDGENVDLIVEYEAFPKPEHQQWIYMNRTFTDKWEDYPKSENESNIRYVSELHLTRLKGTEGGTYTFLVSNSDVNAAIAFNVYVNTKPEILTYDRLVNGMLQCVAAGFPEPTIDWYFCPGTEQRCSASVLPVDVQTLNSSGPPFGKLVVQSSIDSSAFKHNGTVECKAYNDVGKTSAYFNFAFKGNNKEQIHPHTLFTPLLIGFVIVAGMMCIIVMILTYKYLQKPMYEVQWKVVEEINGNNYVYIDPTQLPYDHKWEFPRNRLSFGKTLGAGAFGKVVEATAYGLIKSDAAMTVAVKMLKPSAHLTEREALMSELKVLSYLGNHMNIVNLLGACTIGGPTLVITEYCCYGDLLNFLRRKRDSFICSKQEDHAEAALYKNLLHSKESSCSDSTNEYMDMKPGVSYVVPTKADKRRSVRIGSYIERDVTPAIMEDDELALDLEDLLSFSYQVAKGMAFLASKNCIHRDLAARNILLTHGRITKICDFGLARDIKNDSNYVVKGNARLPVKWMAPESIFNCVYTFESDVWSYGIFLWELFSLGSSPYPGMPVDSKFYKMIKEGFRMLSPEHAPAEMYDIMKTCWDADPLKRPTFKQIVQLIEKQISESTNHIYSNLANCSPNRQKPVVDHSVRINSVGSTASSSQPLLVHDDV

**Q.** For `O=C(Nc1cnc2[nH]c(-c3ccccc3)cc2c1)c1ncccc1F` [P-2012, 3-fluoro-N-(2-phenyl-1H-pyrrolo[2,3-b]pyridin-5-yl)pyridine-2-carboxamide], which IC50 is on record?
**A.** Its IC50 is 0.0001 to 1 µM.

**Q.** `Cc1noc(C)c1C(=O)Nc1cnc2[nH]c(-c3ccccc3)cc2c1` [P-2013, 3,5-dimethyl-N-(2-phenyl-1H-pyrrolo[2,3-b]pyridin-5-yl)isoxazole-4-carboxamide] was tested. Which IC50 did it give?
**A.** The IC50 was 0.0001 to 1 µM.

**Q.** Which IC50 does the source give for `O=C(Nc1cnc2[nH]c(-c3ccccc3)cc2c1)c1cn[nH]n1` [P-2015, N-(2-phenyl-1H-pyrrolo[2,3-b]pyridin-5-yl)-2H-triazole-4-carboxamide] here?
**A.** Its IC50 is 1 to 10 µM.

**Q.** `Cc1cccnc1C(=O)Nc1cnc2[nH]c(-c3ccccc3)cc2c1` [P-2016, 3-methyl-N-(2-phenyl-1H-pyrrolo[2,3-b]pyridin-5-yl)pyridine-2-carboxamide] was tested. Which IC50 did it give?
**A.** Its IC50 is 1 to 10 µM.

**Q.** For `Cc1cc(C(=O)Nc2cnc3[nH]c(-c4ccc(F)cc4)cc3c2)[nH]n1` [P-2019, N-[2-(4-fluorophenyl)-1H-pyrrolo[2,3-b]pyridin-5-yl]-3-methyl-1H-pyrazole-5-carboxamide], which IC50 is on record?
**A.** The IC50 was 10 to 200 µM.

**Q.** Which IC50 does the source give for `Cc1n[nH]c(C(=O)Nc2cnc3[nH]c(-c4ccc(F)cc4)cc3c2)c1Cl` [P-2023, 4-chloro-N-[2-(4-fluorophenyl)-1H-pyrrolo[2,3-b]pyridin-5-yl]-3-methyl-1H-pyrazole-5-carboxamide] here?
**A.** Its IC50 is 1 to 10 µM.

**Q.** Which IC50 does the source give for `Cc1n[nH]c(C(=O)Nc2cnc3[nH]c(-c4ccc(F)cc4)cc3c2)c1C` [P-2024, N-[2-(4-fluorophenyl)-1H-pyrrolo[2,3-b]pyridin-5-yl]-3,4-dimethyl-1H-pyrazole-5-carboxamide] here?
**A.** Its IC50 is 10 to 200 µM.

**Q.** With `CC(=O)Nc1cccc(C(=O)Nc2cnc3[nH]c(-c4ccc(F)cc4)cc3c2)c1` [P-2026, 3-acetamido-N-[2-(4-fluorophenyl)-1H-pyrrolo[2,3-b]pyridin-5-yl]benzamide] as the compound, how does the IC50 read?
**A.** Its IC50 is 0.0001 to 1 µM.

**Q.** How did the IC50 turn out when `O=C(Nc1cnc2[nH]c(-c3ccc(F)cc3)cc2c1)c1cccc2n[nH]cc12` [P-2027, N-[2-(4-fluorophenyl)-1H-pyrrolo[2,3-b]pyridin-5-yl]-2H-indazole-4-carboxamide] was run?
**A.** The IC50 was 0.0001 to 1 µM.

**Q.** `Cc1c[nH]nc1C(=O)Nc1cnc2[nH]c(-c3ccc(F)cc3)cc2c1` [P-2029, N-[2-(4-fluorophenyl)-1H-pyrrolo[2,3-b]pyridin-5-yl]-4-methyl-1H-pyrazole-3-carboxamide] was tested. Which IC50 did it give?
**A.** The IC50 was 0.0001 to 1 µM.

**Q.** With `CCn1nccc1S(=O)(=O)Nc1cnc2[nH]c(-c3ccc(F)cc3)cc2c1` [P-2030, 2-ethyl-N-[2-(4-fluorophenyl)-1H-pyrrolo[2,3-b]pyridin-5-yl]pyrazole-3-sulfonamide] as the compound, how does the IC50 read?
**A.** Its IC50 is 1 to 10 µM.

**Q.** For `Cc1cc(C(=O)Nc2cnc3[nH]c(C4=CCN(C(=O)N5CCOCC5)CC4)cc3c2)n[nH]1` [P-2031, 5-methyl-N-[2-[1-(morpholine-4-carbonyl)-3,6-dihydro-2H-pyridin-4-yl]-1H-pyrrolo[2,3-b]pyridin-5-yl]-1H-pyrazole-3-carboxamide], which IC50 is on record?
**A.** Its IC50 is 0.0001 to 1 µM.

**Q.** With `Cc1n[nH]c(C(=O)Nc2cnc3[nH]ccc3c2)c1C` [P-2032, 3,4-dimethyl-N-(1H-pyrrolo[2,3-b]pyridin-5-yl)-1H-pyrazole-5-carboxamide] as the compound, how does the IC50 read?
**A.** The IC50 was 10 to 200 µM.

**Q.** How did the IC50 turn out when `Cc1n[nH]c(C(=O)Nc2cnc3c(c2)cc(C2=CCN(C(=O)N4CCOCC4)CC2)n3S(=O)(=O)c2ccccc2)c1C` [P-2033, N-[1-(benzenesulfonyl)-2-[1-(morpholine-4-carbonyl)-3,6-dihydro-2H-pyridin-4-yl]pyrrolo[2,3-b]pyridin-5-yl]-3,4-dimethyl-1H-pyrazole-5-carboxamide] was run?
**A.** Its IC50 is 10 to 200 µM.

**Q.** For `Cc1n[nH]c(C(=O)Nc2cnc3[nH]c(C4=CCN(C(=O)N5CCOCC5)CC4)cc3c2)c1C` [P-2034, 3,4-dimethyl-N-[2-[1-(morpholine-4-carbonyl)-3,6-dihydro-2H-pyridin-4-yl]-1H-pyrrolo[2,3-b]pyridin-5-yl]-1H-pyrazole-5-carboxamide], which IC50 is on record?
**A.** Its IC50 is 0.0001 to 1 µM.

**Q.** For `Cc1n[nH]c(C(=O)Nc2cnc3[nH]c(C4=CCN(C(=O)N5CCOCC5)CC4)cc3c2)c1Cl` [P-2036, 4-chloro-3-methyl-N-[2-[1-(morpholine-4-carbonyl)-3,6-dihydro-2H-pyridin-4-yl]-1H-pyrrolo[2,3-b]pyridin-5-yl]-1H-pyrazole-5-carboxamide], which IC50 is on record?
**A.** Its IC50 is 0.0001 to 1 µM.

**Q.** For `Cc1n[nH]nc1C(=O)Nc1cnc2[nH]c(-c3ccc(F)cc3)cc2c1` [P-2037, N-[2-(4-fluorophenyl)-1H-pyrrolo[2,3-b]pyridin-5-yl]-5-methyl-2H-triazole-4-carboxamide], which IC50 is on record?
**A.** Its IC50 is 1 to 10 µM.

**Q.** How did the IC50 turn out when `Cc1nn(C)cc1-c1cc2cc(NC(=O)c3[nH]nc(C)c3C)cnc2[nH]1` [P-2038, N-[2-(1,3-dimethylpyrazol-4-yl)-1H-pyrrolo[2,3-b]pyridin-5-yl]-4,5-dimethyl-1H-pyrazole-3-carboxamide] was run?
**A.** The IC50 was 0.0001 to 1 µM.

**Q.** How did the IC50 turn out when `Cc1[nH]nc(C(=O)Nc2cnc3[nH]c(C4=CCN(C(=O)C5CC5)CC4)cc3c2)c1Cl` [P-2039, 4-chloro-N-[2-[1-(cyclopropanecarbonyl)-3,6-dihydro-2H-pyridin-4-yl]-1H-pyrrolo[2,3-b]pyridin-5-yl]-5-methyl-1H-pyrazole-3-carboxamide] was run?
**A.** The IC50 was 0.0001 to 1 µM.

**Q.** How did the IC50 turn out when `Cc1n[nH]c(C(=O)Nc2cnc3[nH]nc(C)c3c2)c1C` [P-2040, 3,4-dimethyl-N-(3-methyl-1H-pyrazolo[3,4-b]pyridin-5-yl)-1H-pyrazole-5-carboxamide] was run?
**A.** Its IC50 is 10 to 200 µM.

**Q.** `Cc1cc(C(=O)Nc2cnc3[nH]c(C4=CCN(C(=O)C5CC5)CC4)cc3c2)n[nH]1` [P-2042, N-[2-[1-(cyclopropanecarbonyl)-3,6-dihydro-2H-pyridin-4-yl]-1H-pyrrolo[2,3-b]pyridin-5-yl]-5-methyl-1H-pyrazole-3-carboxamide] was tested. Which IC50 did it give?
**A.** Its IC50 is 0.0001 to 1 µM.

**Q.** For `Cc1[nH]nc(C(=O)Nc2cnc3[nH]c(C4=CCN(C(=O)C5CC5)CC4)cc3c2)c1C` [P-2043, N-[2-[1-(cyclopropanecarbonyl)-3,6-dihydro-2H-pyridin-4-yl]-1H-pyrrolo[2,3-b]pyridin-5-yl]-4,5-dimethyl-1H-pyrazole-3-carboxamide], which IC50 is on record?
**A.** The IC50 was 0.0001 to 1 µM.

**Q.** Which IC50 does the source give for `Cc1n[nH]c(C(=O)Nc2cnc(Nc3ccccc3)nc2)c1C` [P-2044, N-(2-anilinopyrimidin-5-yl)-3,4-dimethyl-1H-pyrazole-5-carboxamide] here?
**A.** Its IC50 is 10 to 200 µM.

**Q.** `Cc1n[nH]c(C(=O)Nc2ccc(Nc3ccccc3)nc2)c1C` [P-2045, N-(6-anilino-3-pyridyl)-3,4-dimethyl-1H-pyrazole-5-carboxamide] was tested. Which IC50 did it give?
**A.** Its IC50 is 10 to 200 µM.

**Q.** How did the IC50 turn out when `O=C(Nc1cnc2[nH]c(-c3ccc(F)cc3)cc2c1)c1n[nH]c2ccccc12` [P-2046, N-[2-(4-fluorophenyl)-1H-pyrrolo[2,3-b]pyridin-5-yl]-1H-indazole-3-carboxamide] was run?
**A.** The IC50 was 10 to 200 µM.

**Q.** `O=C(Nc1cnc2[nH]c(-c3ccc(F)cc3)cc2c1)c1n[nH]c2c1CCCC2` [P-2047, N-[2-(4-fluorophenyl)-1H-pyrrolo[2,3-b]pyridin-5-yl]-4,5,6,7-tetrahydro-1H-indazole-3-carboxamide] was tested. Which IC50 did it give?
**A.** Its IC50 is 10 to 200 µM.

**Q.** How did the IC50 turn out when `Cc1n[nH]c(C(=O)Nc2cnc3[nH]c(-c4cnn(C5CCNCC5)c4)cc3c2)c1C` [P-2048, 3,4-dimethyl-N-[2-[1-(4-piperidyl)pyrazol-4-yl]-1H-pyrrolo[2,3-b]pyridin-5-yl]-1H-pyrazole-5-carboxamide] was run?
**A.** Its IC50 is 0.0001 to 1 µM.

**Q.** With `Cc1n[nH]c(C(=O)Nc2cnc3[nH]c(Cl)cc3c2)c1C` [P-2049, N-(2-chloro-1H-pyrrolo[2,3-b]pyridin-5-yl)-3,4-dimethyl-1H-pyrazole-5-carboxamide] as the compound, how does the IC50 read?
**A.** The IC50 was 10 to 200 µM.

**Q.** For `CCNS(=O)(=O)c1cccc(Nc2ncc(NC(=O)c3[nH]nc(C)c3C)cn2)c1` [P-2050, N-[2-[3-(ethylsulfamoyl)anilino]pyrimidin-5-yl]-3,4-dimethyl-1H-pyrazole-5-carboxamide], which IC50 is on record?
**A.** The IC50 was 10 to 200 µM.
